Measured values: patent publication US20250049748A1, “ANALOGS OF 4-BROMO-2,5-DIMETHOXYPHENETHYLAMINE” (Terran Biosciences Inc., priority 2021, published 2025)
Where “and” joins values, the source holds several entries; their conditions need not be identical. Identical values can stand only once.

Test: Pharmacokinetic study in rats: plasma 2C-B after IV/PO 2C-B or PO 2C-B prodrugs
Conditions: for Tlast / AUC0-inf / AUC0-last / Cmax / T1/2 / AUC(0-t) / half-life / Tmax: male SD rats, analyte 2C-B in plasma; for AUC(0-t): AUC0-last; for Plasma Concentrations of metabolite 2C-B Following Oral Dosing: oral dosing of 2C-B prodrug
[1] = 2C-B dosed IV 1 mg/kg, individual animals, 1 mg/kg
[2] = 2C-B dosed oral 5 mg/kg, individual animals, 5 mg/kg
[3] = 2C-B dosed oral 10 mg/kg, individual animals, 10 mg/kg
[4] = male, Sprague-Dawley, rat, plasma, po, 5 mg/kg, 2C-B dosed oral 5 mg/kg, mean
[5] = rat, time 0.500 h, individual animal
[6] = rat, time 1.00 h, individual animal
[7] = rat, time 2.00 h, individual animal
[8] = rat, time 4.00 h, individual animal
[9] = rat, time 7.00 h, individual animal
[10] = rat, time 24.0 h, individual animal

COc1cc(CCN)c(OC)cc1Br [Example 2C-B, 4-bromo-2,5-dimethoxyphenethylamine]
Tlast (2C-B dosed IV 1 mg/kg, Mean* row (median calculated for Tlast)): 2 h
Tlast (2C-B dosed IV 1 mg/kg, individual animals): 2 h
AUC0-inf [1]: 72.0 ng·h/mL and 57.8 ng·h/mL
AUC0-last [1]: 71.0 ng·h/mL and 56.8 ng·h/mL
Cmax [1]: 85.0 ng/mL and 68.8 ng/mL
T1/2 [1]: 20.3 min and 22.2 min
AUC0-inf [2]: 92.0 ng·h/mL and 115 ng·h/mL and 193 ng·h/mL
AUC0-last [2]: 69.0 ng·h/mL and 103 ng·h/mL and 159 ng·h/mL
Cmax [2]: 29.5 ng/mL and 53.5 ng/mL
T1/2 [2]: 251 min and 454 min and 732 min
Tlast [2]: 7.00 h and 24.0 h (2×)
Tlast (2C-B dosed oral 5 mg/kg, mean): 18.3 h
Tlast (2C-B dosed oral 10 mg/kg, Mean* row (median calculated for Tlast)): 7.0 h
AUC0-inf [3]: 66.8 ng·h/mL and 26.1 ng·h/mL
AUC0-last [3]: 40.9 ng·h/mL and 64.3 ng·h/mL and 23.8 ng·h/mL
Cmax [3]: 29.4 ng/mL and 37.9 ng/mL and 11.3 ng/mL
T1/2 [3]: 134 min
Tlast [3]: 2 h and 7 h (2×)
AUC0-inf (male, Sprague-Dawley, rat, plasma, iv, 1 mg/kg, AUC0-inf, 2C-B dosed IV 1 mg/kg, individual animals): 68.6 ng·h/mL
AUC0-inf (male, Sprague-Dawley, rat, plasma, iv, 1 mg/kg, AUC0-inf, 2C-B dosed IV 1 mg/kg, mean of 3 animals): 66.1 ng·h/mL
AUC(0-t) (male, Sprague-Dawley, rat, plasma, iv, 1 mg/kg, 2C-B dosed IV 1 mg/kg, individual animals): 65.6 ng·h/mL
AUC(0-t) (male, Sprague-Dawley, rat, plasma, iv, 1 mg/kg, 2C-B dosed IV 1 mg/kg, mean of 3 animals): 64.5 ng·h/mL
Cmax (male, Sprague-Dawley, rat, plasma, iv, 1 mg/kg, Cmax, 2C-B dosed IV 1 mg/kg, individual animals): 72 ng/mL
Cmax (male, Sprague-Dawley, rat, plasma, iv, 1 mg/kg, Cmax, 2C-B dosed IV 1 mg/kg, mean of 3 animals): 75.3 ng/mL
half-life (male, Sprague-Dawley, rat, plasma, iv, 1 mg/kg, T1/2, 2C-B dosed IV 1 mg/kg, individual animals): 27.3 min
half-life (male, Sprague-Dawley, rat, plasma, iv, 1 mg/kg, T1/2, 2C-B dosed IV 1 mg/kg, mean of 3 animals): 23.3 min
AUC0-inf (male, Sprague-Dawley, rat, plasma, po, 5 mg/kg, AUC0-inf, 2C-B dosed oral 5 mg/kg, mean): 133 ng·h/mL
AUC(0-t) [4]: 110 ng·h/mL
Cmax (male, Sprague-Dawley, rat, plasma, po, 5 mg/kg, Cmax, 2C-B dosed oral 5 mg/kg, individual animals): 30.1 ng/mL
Cmax (male, Sprague-Dawley, rat, plasma, po, 5 mg/kg, Cmax, 2C-B dosed oral 5 mg/kg, mean): 37.7 ng/mL
half-life (male, Sprague-Dawley, rat, plasma, po, 5 mg/kg, T1/2, 2C-B dosed oral 5 mg/kg, mean): 479 min
Tmax (male, Sprague-Dawley, rat, plasma, po, 5 mg/kg, 2C-B dosed oral 5 mg/kg, individual animals): 30 min
Tmax [4]: 30 min
AUC0-inf (male, Sprague-Dawley, rat, plasma, po, 10 mg/kg, AUC0-inf, 2C-B dosed oral 10 mg/kg, mean): 46.5 ng·h/mL
AUC(0-t) (male, Sprague-Dawley, rat, plasma, po, 10 mg/kg, 2C-B dosed oral 10 mg/kg, mean): 43 ng·h/mL
Cmax (male, Sprague-Dawley, rat, plasma, po, 10 mg/kg, Cmax, 2C-B dosed oral 10 mg/kg, mean): 26.2 ng/mL
half-life (male, Sprague-Dawley, rat, plasma, po, 10 mg/kg, T1/2, 2C-B dosed oral 10 mg/kg, individual animals): 99 min
half-life (male, Sprague-Dawley, rat, plasma, po, 10 mg/kg, T1/2, 2C-B dosed oral 10 mg/kg, mean): 116 min
Tmax (male, Sprague-Dawley, rat, plasma, po, 10 mg/kg, 2C-B dosed oral 10 mg/kg, Mean* row (median calculated for Tmax)): 30 min
Tmax (male, Sprague-Dawley, rat, plasma, po, 10 mg/kg, 2C-B dosed oral 10 mg/kg, individual animals): 60 min

CCOC(=O)C1=C(C(=O)NCCc2cc(OC)c(Br)cc2OC)CCC1 [Example 36, Ethyl 2-((4-bromo-2,5-dimethoxyphenethyl)carbamoyl)cyclopent-1-ene-1-carboxylate]
Plasma Concentrations of metabolite 2C-B Following Oral Dosing [5]: BLQ (BLQ: Below Lower Limit of Quanification (0.5 ng/mL))
Plasma Concentrations of metabolite 2C-B Following Oral Dosing (rat, time 0.500 h, mean): BLQ (BLQ: Below Lower Limit of Quanification (0.5 ng/mL))
Plasma Concentrations of metabolite 2C-B Following Oral Dosing [6]: BLQ (BLQ: Below Lower Limit of Quanification (0.5 ng/mL))
Plasma Concentrations of metabolite 2C-B Following Oral Dosing (rat, time 1.00 h, mean): BLQ (BLQ: Below Lower Limit of Quanification (0.5 ng/mL))
Plasma Concentrations of metabolite 2C-B Following Oral Dosing [7]: BLQ (BLQ: Below Lower Limit of Quanification (0.5 ng/mL))
Plasma Concentrations of metabolite 2C-B Following Oral Dosing (rat, time 2.00 h, mean): BLQ (BLQ: Below Lower Limit of Quanification (0.5 ng/mL))
Plasma Concentrations of metabolite 2C-B Following Oral Dosing [8]: BLQ (BLQ: Below Lower Limit of Quanification (0.5 ng/mL))
Plasma Concentrations of metabolite 2C-B Following Oral Dosing (rat, time 4.00 h, mean): BLQ (BLQ: Below Lower Limit of Quanification (0.5 ng/mL))
Plasma Concentrations of metabolite 2C-B Following Oral Dosing [9]: BLQ (BLQ: Below Lower Limit of Quanification (0.5 ng/mL))
Plasma Concentrations of metabolite 2C-B Following Oral Dosing (rat, time 7.00 h, mean): BLQ (BLQ: Below Lower Limit of Quanification (0.5 ng/mL))
Plasma Concentrations of metabolite 2C-B Following Oral Dosing [10]: BLQ (BLQ: Below Lower Limit of Quanification (0.5 ng/mL))
Plasma Concentrations of metabolite 2C-B Following Oral Dosing (rat, time 24.0 h, mean): BLQ (BLQ: Below Lower Limit of Quanification (0.5 ng/mL))

COc1cc(CCN2C(=O)c3c(C)ccc(C)c3C2=O)c(OC)cc1Br [Example 34, 2-(4-bromo-2,5-dimethoxyphenethyl)-4,7-dimethylisoindoline-1,3-dione]
Plasma Concentrations of metabolite 2C-B Following Oral Dosing [5]: BLQ (BLQ: Below Lower Limit of Quanification (0.5 ng/mL))
Plasma Concentrations of metabolite 2C-B Following Oral Dosing (rat, time 0.500 h, mean): BLQ (BLQ: Below Lower Limit of Quanification (0.5 ng/mL))
Plasma Concentrations of metabolite 2C-B Following Oral Dosing [6]: BLQ (BLQ: Below Lower Limit of Quanification (0.5 ng/mL))
Plasma Concentrations of metabolite 2C-B Following Oral Dosing (rat, time 1.00 h, mean): BLQ (BLQ: Below Lower Limit of Quanification (0.5 ng/mL))
Plasma Concentrations of metabolite 2C-B Following Oral Dosing [7]: BLQ (BLQ: Below Lower Limit of Quanification (0.5 ng/mL))
Plasma Concentrations of metabolite 2C-B Following Oral Dosing (rat, time 2.00 h, mean): BLQ (BLQ: Below Lower Limit of Quanification (0.5 ng/mL))
Plasma Concentrations of metabolite 2C-B Following Oral Dosing [8]: BLQ (BLQ: Below Lower Limit of Quanification (0.5 ng/mL))
Plasma Concentrations of metabolite 2C-B Following Oral Dosing (rat, time 4.00 h, mean): BLQ (BLQ: Below Lower Limit of Quanification (0.5 ng/mL))
Plasma Concentrations of metabolite 2C-B Following Oral Dosing [9]: BLQ (BLQ: Below Lower Limit of Quanification (0.5 ng/mL))
Plasma Concentrations of metabolite 2C-B Following Oral Dosing (rat, time 7.00 h, mean): BLQ (BLQ: Below Lower Limit of Quanification (0.5 ng/mL))
Plasma Concentrations of metabolite 2C-B Following Oral Dosing [10]: BLQ (BLQ: Below Lower Limit of Quanification (0.5 ng/mL))
Plasma Concentrations of metabolite 2C-B Following Oral Dosing (rat, time 24.0 h, mean): BLQ (BLQ: Below Lower Limit of Quanification (0.5 ng/mL))
